According to publication PMC6508677, “Identification of druggable small molecule antagonists of the Plasmodium falciparum hexose transporter PfHT and assessment of ligand access to the glucose permeation pathway via FLAG-mediated protein engineering” (PLoS ONE, 2019):
“And” between values parts separate entries of the source, which are not always exact repeats. Equal values may be shown once. Read-outs that look alike come from different tables or passages of the source.

Molecular target: T1, FTPfHT (Plasmodium falciparum, UniProt Q7KWJ5)
T1 sequence (Q7KWJ5 1-504): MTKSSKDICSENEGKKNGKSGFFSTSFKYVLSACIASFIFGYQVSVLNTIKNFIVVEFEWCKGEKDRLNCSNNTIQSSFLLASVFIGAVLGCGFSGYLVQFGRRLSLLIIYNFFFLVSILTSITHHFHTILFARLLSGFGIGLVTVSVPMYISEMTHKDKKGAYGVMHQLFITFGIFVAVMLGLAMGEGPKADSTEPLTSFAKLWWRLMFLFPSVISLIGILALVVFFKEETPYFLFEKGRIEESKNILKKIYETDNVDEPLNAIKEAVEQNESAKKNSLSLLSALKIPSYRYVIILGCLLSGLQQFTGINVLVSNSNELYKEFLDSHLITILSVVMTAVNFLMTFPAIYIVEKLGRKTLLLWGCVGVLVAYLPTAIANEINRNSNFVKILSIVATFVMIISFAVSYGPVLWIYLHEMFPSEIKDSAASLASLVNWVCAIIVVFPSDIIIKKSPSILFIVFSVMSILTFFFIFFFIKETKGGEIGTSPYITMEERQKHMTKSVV
Experiment: [3H]-D-glucose specific uptake into FTPfHT-containing liposomes
Assay type: biochemical
Settings: for D-Glc - L-Glc Uptake, single experiments / D-Glc - L-Glc Uptake, Ave: liposomes; for D-Glc - L-Glc Uptake, Ave: average of Expt 1-3
Text: SalI and NotI restriction sites were introduced to the 5’ and 3’ ends, respectively, of FTPfHT cDNA via PCR and then this construct was placed into the multiple cloning site of the pACMV-tetO vector [25]. Stable tetracycline-inducible HEK293S GnTI cell lines expressing FTPfHT were generated using the same protocol previously described for FTGLUT4 [26]. FTPfHT protein was solubilized from FTPfHT/HEK293S GnTI cell pellets with lauryl maltose neopentyl glycol (LMNG) detergent and purified using M2 anti-FLAG affinity gel (Sigma) as described in [27]. The FLAG tag was cleaved using tobacco etch virus (TEV) protease (plasmid purchased from Addgene, Cambridge, MA) at a ratio of 1:20 TEV/PfHT overnight at 4°C in the presence of 1 mM DTT. Based on SDS-PAGE and Blue BANDit protein stain (Amresco, Solon, OH), PfHT protein after FLAG elution was ~95% pure.
Liposomes containing PfHT were made according to Hresko et al.. Briefly, purified PfHT protein in LMNG micelles described above were mixed with Triton X-100 destabilized eggPC/POPA/POPE (70:15:15) large unilamellar vesicles (lipid to protein ratio of 100–125:1 (w/w)). By slowly removing the detergents with Amberlite XAD-2 beads (Supelco Analytical, Bellefonte, PA), PfHT protein spontaneously inserts into the liposomes. After removal of the beads, liposomes were collected by ultracentrifugation, resuspended in buffer, and flash-frozen with liquid nitrogen. Frozen liposomes containing purified PfHT protein were thawed at room temperature followed by extrusion through a 200-nm polycarbonate filter to create liposomes of uniform size. Uptake was started by adding [^3H]-D-glucose (1 μCi/ml, 200 μM cold D-glucose) to PfHT proteoliposomes at room temperature. Transport was stopped at different times with 5 ml of ice-cold quench buffer (50 mM potassium phosphate, 130 mM KCl, pH 7.4) and then filtered by vacuum on a 0.2-μm mixed cellulose ester filter (Advantec, Durham, NC). Filters were subsequently washed with an additional 10 ml of quench buffer. Scintillation fluid (Filter Count, PerkinElmer, Waltham, MA) was added to the filters and the radioactivity counted. [^3H]-L-glucose (1 μCi/ml, 200 μM cold L-glucose) was used to determine nonspecific transport. Specific uptake was calculated by subtracting nonspecific [^3H]-L-glucose from [^3H]-D-glucose uptake. Uptake was normalized to the amount of transporter per reaction, determined by analyzing aliquots of transporter-containing liposomes along with a BSA standard curve on an SDS-polyacrylamide gel stained with Blue Bandit protein stain and quantified using an Odyssey infrared imaging system (LI-COR Biosciences, Lincoln, NB). Data were fitted by least squares nonlinear regression analysis using GraphPad Prism 6.0.

Structure (SMILES): Cc1ccc(S(=O)(=O)CCNC(=O)c2c(-c3c(Cl)cccc3Cl)noc2C)cc1 [WU-1, 3-(2,6-dichlorophenyl)-5-methyl-N-[2-(4-methylbenzenesulfonyl)ethyl]-1,2-oxazole-4-carboxamide]
- IC50 (D-Glc - L-Glc uptake in reconstituted liposomes, Expt 1, Expt 2, Expt 3, read-out: IC50, single experiments): 12.4 µM and 18.8 µM and 8.31 µM
- IC50 (S3 Fig, read-out: IC50 for specific D-glucose uptake into FTPfHT liposomes): 13.2 ± 3.1 µM
- D-Glc - L-Glc Uptake, single experiments (WU-1 0.001 µM, Expt 1, Expt 2, Expt 3): 36.56 pmol/µg PfHT and 54.37 pmol/µg PfHT and 37.47 pmol/µg PfHT
- D-Glc - L-Glc Uptake, Ave (WU-1 0.001 µM): 42.8 pmol/µg PfHT
- D-Glc - L-Glc Uptake, single experiments (WU-1 0.625 µM, Expt 1, Expt 2, Expt 3): 44.52 pmol/µg PfHT and 43.4 pmol/µg PfHT and 46.2 pmol/µg PfHT
- D-Glc - L-Glc Uptake, Ave (WU-1 0.625 µM): 44.7 pmol/µg PfHT
- D-Glc - L-Glc Uptake, single experiments (WU-1 1.25 µM, Expt 1, Expt 2, Expt 3): 39.01 pmol/µg PfHT and 40.61 pmol/µg PfHT and 38.03 pmol/µg PfHT
- D-Glc - L-Glc Uptake, Ave (WU-1 1.25 µM): 39.22 pmol/µg PfHT
- D-Glc - L-Glc Uptake, single experiments (WU-1 2.5 µM, Expt 1, Expt 2, Expt 3): 43.49 pmol/µg PfHT and 43.42 pmol/µg PfHT and 42.09 pmol/µg PfHT
- D-Glc - L-Glc Uptake, Ave (WU-1 2.5 µM): 43 pmol/µg PfHT
- D-Glc - L-Glc Uptake, single experiments (WU-1 5 µM, Expt 1, Expt 2, Expt 3): 32.42 pmol/µg PfHT and 25.14 pmol/µg PfHT and 27.92 pmol/µg PfHT
- D-Glc - L-Glc Uptake, Ave (WU-1 5 µM): 28.49 pmol/µg PfHT
- D-Glc - L-Glc Uptake, single experiments (WU-1 10 µM, Expt 1, Expt 2, Expt 3): 23.96 pmol/µg PfHT and 25.01 pmol/µg PfHT and 20.67 pmol/µg PfHT
- D-Glc - L-Glc Uptake, Ave (WU-1 10 µM): 23.21 pmol/µg PfHT
- D-Glc - L-Glc Uptake, Ave (WU-1 20 µM): 17.17 pmol/µg PfHT
- D-Glc - L-Glc Uptake, single experiments (WU-1 40 µM, Expt 1, Expt 2, Expt 3): 10.91 pmol/µg PfHT and 13.9 pmol/µg PfHT and 10.43 pmol/µg PfHT
- D-Glc - L-Glc Uptake, Ave (WU-1 40 µM): 11.75 pmol/µg PfHT
- D-Glc - L-Glc Uptake, single experiments (WU-1 80 µM, Expt 1, Expt 2, Expt 3): 3.31 pmol/µg PfHT and 3.52 pmol/µg PfHT and 3.4 pmol/µg PfHT
- D-Glc - L-Glc Uptake, Ave (WU-1 80 µM): 3.41 pmol/µg PfHT
- D-Glc - L-Glc Uptake, single experiments (WU-1 160 µM, Expt 1, Expt 2, Expt 3): 4.44 pmol/µg PfHT and 4.32 pmol/µg PfHT and 4.15 pmol/µg PfHT
- D-Glc - L-Glc Uptake, Ave (WU-1 160 µM): 4.3 pmol/µg PfHT
